From ChEMBL document CHEMBL1201862, “PubChem BioAssay data set” (2004)
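Five concentrations, 48 hours, 96-well plates. GI50 = concentration required for 50% inhibition of growth.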 Active and inactive are the calls of the source. Rule as the data show it: active = GI50 up to about 1.1 µM and inactive = higher.

Tests used:
Assay in all cases: NCI tumour cell line growth inhibition, 48 h
[1] = test system: 786-0
[2] = test system: A498
[3] = test system: BT-549
[4] = test system: CAKI-1
[5] = test system: HCC 2998
[6] = test system: HL-60
[7] = test system: HOP-62
[8] = test system: HT-29
[9] = test system: K562
[10] = test system: LOX IMVI
[11] = test system: MOLT-4
[12] = test system: NCI-H226
[13] = test system: NCI-H522
[14] = test system: NCI/ADR-RES
[15] = test system: OVCAR-5
[16] = test system: PC-3
[17] = test system: SNB-75
[18] = test system: U-251
[19] = test system: UO-31
[20] = test system: OVCAR-3

| Compound | GI50 [1] | GI50 [2] | GI50 [3] | GI50 [4] | GI50 [5] | GI50 [6] | GI50 [7] | GI50 [8] | GI50 [9] | GI50 [10] | GI50 [11] | GI50 [12] | GI50 [13] | GI50 [14] | GI50 [15] | GI50 [16] | GI50 [17] | GI50 [18] | GI50 [19] | GI50 [20] |
| --- | --- | --- | --- | --- | --- | --- | --- | --- | --- | --- | --- | --- | --- | --- | --- | --- | --- | --- | --- | --- |
| Cc1cn([C@@H]2C[C@@H]2CO)c(=O)[nH]c1=O | > 100 µM (inactive) | > 100 µM (inactive) | > 100 µM (inactive) | > 100 µM (inactive) | > 100 µM (inactive) | > 100 µM (inactive) | > 100 µM (inactive) | > 100 µM (inactive) | > 100 µM (inactive) | > 100 µM (inactive) | > 100 µM (inactive) | > 100 µM (inactive) | > 100 µM (inactive) | > 100 µM (inactive) | > 100 µM (inactive) | > 100 µM (inactive) | > 100 µM (inactive) | > 100 µM (inactive) | > 100 µM (inactive) | – |
| Cc1cc2c(=Cc3ccc(N(C)C)cc3)c3ccccc3n2[n+]1C | 0.607 µM (active) | 1.87 µM (inactive) | 0.537 µM (active) | 3.3 µM (inactive) | 0.256 µM (active) | 1.39 µM (inactive) | 0.656 µM (active) | 0.675 µM (active) | 0.227 µM (active) | 0.458 µM (active) | 0.282 µM (active) | 1.01 µM (active) | 0.335 µM (active) | > 66.4 µM (inactive) | 5.87 µM (inactive) | 0.44 µM (active) | 0.409 µM (active) | 0.203 µM (active) | 3.01 µM (inactive) | 0.313 µM (active) |
| C=C1C(=O)O[C@@H]2C[C@@]3(C)CCC[C@H](C)C3=C[C@H]12 [HELENINE] | 3.53 µM (inactive) | 12.4 µM (inactive) | 3.62 µM (inactive) | 5.33 µM (inactive) | 15.7 µM (inactive) | 1.98 µM (inactive) | 12.3 µM (inactive) | 4.29 µM (inactive) | 3.02 µM (inactive) | 10.5 µM (inactive) | 1.62 µM (inactive) | 15.7 µM (inactive) | 3.18 µM (inactive) | 7.74 µM (inactive) | 17.5 µM (inactive) | 11.6 µM (inactive) | 3.46 µM (inactive) | 9.86 µM (inactive) | 4.95 µM (inactive) | 6.89 µM (inactive) |
| CC(=O)O[C@H]1C[C@H]2[C@@H]([C@H](OC(C)=O)C[C@@H]3CC4(CC[C@@]32C)OOC2(CCCCC2)OO4)[C@@H]2CC[C@H]([C@H](C)CCC(N)=O)[C@@]12C | 1.81 µM (inactive) | 6.64 µM (inactive) | 2.07 µM (inactive) | 0.63 µM (active) | 3.63 µM (inactive) | 1.69 µM (inactive) | 0.817 µM (active) | 3.4 µM (inactive) | 2.05 µM (inactive) | 1 µM (active) | 0.881 µM (active) | 2.46 µM (inactive) | 0.55 µM (active) | 2.2 µM (inactive) | 2.34 µM (inactive) | 1.62 µM (inactive) | 2.28 µM (inactive) | 1.51 µM (inactive) | – | 1.54 µM (inactive) |
| O=C(C/C(=N/O)C(=O)NC1=C(Cl)C(=O)c2ccccc2C1=O)CC(c1ccccc1)c1c(O)c2ccccc2oc1=O (stereo not given) | 10.4 µM (inactive) | 46.6 µM (inactive) | 16.4 µM (inactive) | 17.3 µM (inactive) | 11.9 µM (inactive) | 2.39 µM (inactive) | – | 4.84 µM (inactive) | 16.3 µM (inactive) | 3.39 µM (inactive) | 17.9 µM (inactive) | 2.48 µM (inactive) | 13.2 µM (inactive) | 11.2 µM (inactive) | 17.7 µM (inactive) | 3.92 µM (inactive) | 3.87 µM (inactive) | 7.69 µM (inactive) | 14.9 µM (inactive) | 3.88 µM (inactive) |
| Cc1cc(/N=C/c2ccc(Cl)cc2)n(-c2ccccc2)n1 | 37.3 µM (inactive) | 21.9 µM (inactive) | 31.8 µM (inactive) | 39 µM (inactive) | 24.9 µM (inactive) | 26 µM (inactive) | 36 µM (inactive) | 23.4 µM (inactive) | 12.9 µM (inactive) | 54.2 µM (inactive) | 32.2 µM (inactive) | 43.6 µM (inactive) | 23.1 µM (inactive) | 40.9 µM (inactive) | 87.5 µM (inactive) | 53.8 µM (inactive) | 32.4 µM (inactive) | > 100 µM (inactive) | 59 µM (inactive) | 22.8 µM (inactive) |
| CCOC(=O)C1=CNC2=N[C@H]3CCCC[C@@H]3N2C1=O | > 100 µM (inactive) | > 100 µM (inactive) | > 100 µM (inactive) | > 100 µM (inactive) | > 100 µM (inactive) | > 100 µM (inactive) | – | > 100 µM (inactive) | > 100 µM (inactive) | > 100 µM (inactive) | > 100 µM (inactive) | > 100 µM (inactive) | > 100 µM (inactive) | > 100 µM (inactive) | > 100 µM (inactive) | > 100 µM (inactive) | > 100 µM (inactive) | > 100 µM (inactive) | > 100 µM (inactive) | > 100 µM (inactive) |
| CN(C)c1ccc(Cc2cc3c(O)ccc(O)c3cc(Cc3ccc(N(C)C)cc3)c2=O)cc1 | 16 µM (inactive) | 46.1 µM (inactive) | 13.7 µM (inactive) | 6.46 µM (inactive) | 23 µM (inactive) | 3.04 µM (inactive) | 45.7 µM (inactive) | 19.2 µM (inactive) | 2.96 µM (inactive) | 17.7 µM (inactive) | 2.92 µM (inactive) | 24.7 µM (inactive) | 3.73 µM (inactive) | 27 µM (inactive) | > 43.9 µM (inactive) | 15.4 µM (inactive) | > 55.8 µM (inactive) | 20 µM (inactive) | 13.1 µM (inactive) | 14.3 µM (inactive) |
| CCOC(=O)c1cccc([N+](=O)[O-])c1N | > 100 µM (inactive) | 66.2 µM (inactive) | > 100 µM (inactive) | > 100 µM (inactive) | > 100 µM (inactive) | > 100 µM (inactive) | > 100 µM (inactive) | > 100 µM (inactive) | > 100 µM (inactive) | > 100 µM (inactive) | > 100 µM (inactive) | > 100 µM (inactive) | > 100 µM (inactive) | > 100 µM (inactive) | > 100 µM (inactive) | > 100 µM (inactive) | 62.1 µM (inactive) | > 100 µM (inactive) | > 100 µM (inactive) | > 100 µM (inactive) |
| Cc1ccc2c(c1)[nH]c(=S)n2C=C1C(=O)CC(C)(C)CC1=O | > 100 µM (inactive) | > 100 µM (inactive) | > 100 µM (inactive) | > 100 µM (inactive) | > 100 µM (inactive) | > 100 µM (inactive) | > 100 µM (inactive) | > 100 µM (inactive) | – | > 100 µM (inactive) | > 100 µM (inactive) | > 100 µM (inactive) | > 100 µM (inactive) | > 100 µM (inactive) | > 100 µM (inactive) | > 100 µM (inactive) | > 100 µM (inactive) | > 100 µM (inactive) | > 100 µM (inactive) | > 100 µM (inactive) |
| O=C(C1OC1c1cccc([N+](=O)[O-])c1)C12CC3CC(CC(C3)C1)C2 (stereo not given) | 2.69 µM (inactive) | 5.13 µM (inactive) | 3.09 µM (inactive) | 8.83 µM (inactive) | 6.73 µM (inactive) | 2.43 µM (inactive) | 10.7 µM (inactive) | 3.39 µM (inactive) | 2.58 µM (inactive) | 1.72 µM (inactive) | 2.82 µM (inactive) | 10.5 µM (inactive) | 3.81 µM (inactive) | 3.24 µM (inactive) | 7.21 µM (inactive) | 5.5 µM (inactive) | 6.78 µM (inactive) | 2.88 µM (inactive) | 8.26 µM (inactive) | 3.81 µM (inactive) |
| NCCN1C(=O)CN=C(c2ccc(Cl)cc2)c2cc(Cl)ccc21 | 15.9 µM (inactive) | 19.1 µM (inactive) | 16 µM (inactive) | 16.3 µM (inactive) | 16.5 µM (inactive) | 16 µM (inactive) | 17.3 µM (inactive) | 16.8 µM (inactive) | 16.3 µM (inactive) | 16.2 µM (inactive) | 0.46 µM (active) | 14 µM (inactive) | 16.1 µM (inactive) | 15.9 µM (inactive) | 15.7 µM (inactive) | 14.8 µM (inactive) | 14.9 µM (inactive) | 16.8 µM (inactive) | 13.9 µM (inactive) | 15.5 µM (inactive) |
| CN(C)CCn1c(=O)c2ccc3c4c(nn3CCN(C)C)c3ccccc3n(c1=O)c24 | < 0.121 µM (active) | 0.301 µM (active) | 1.84 µM (inactive) | 0.0608 µM (active) | 0.129 µM (active) | 0.598 µM (active) | 0.164 µM (active) | < 0.123 µM (active) | 0.146 µM (active) | 0.214 µM (active) | < 0.01 µM (active) | 0.506 µM (active) | < 0.0219 µM (active) | 0.368 µM (active) | 0.485 µM (active) | 0.351 µM (active) | < 0.0146 µM (active) | 0.196 µM (active) | 0.271 µM (active) | 0.431 µM (active) |
| Oc1cc(Br)cc2cc(Cl)cnc12 | 8.71 µM (inactive) | 8.26 µM (inactive) | 2.44 µM (inactive) | 7.55 µM (inactive) | 17.8 µM (inactive) | 0.463 µM (active) | 4.84 µM (inactive) | 11 µM (inactive) | 0.627 µM (active) | 0.635 µM (active) | 1.55 µM (inactive) | 16.3 µM (inactive) | 2.35 µM (inactive) | 1.21 µM (inactive) | 18.7 µM (inactive) | 3.59 µM (inactive) | 8.2 µM (inactive) | 1.56 µM (inactive) | 1.48 µM (inactive) | 1.95 µM (inactive) |
